Test results taken from patent US9247759B2, “Identification of human T2R receptors that respond to bitter compounds that elicit the bitter taste in compositions, and the use thereof in assays to identify compounds that inhibit (block) bitter taste in compositions and use thereof” (SENOMYX, INC., priority 2007, dated 2016).
Where two headings read alike, the source gives them in different places.

Experiments:
hT2R3 = hT2R3 (Homo sapiens (Human), UniProt Q9NYW6); assay: hT2R panel inhibition, transient HEK293 G16g44, agonist Chloroquine pH6.5 50 μM; assay type: cell-based; conditions: HEK293, compound at 25 μM; receptor activated to EC80 with the corresponding agonist; read-out: screening result against bitter receptor 3
Method: (§1) Specifically, in order to evaluate the inhibitory selectivity of the Compound C compound, this compound was tested against 22 human T2Rs which were deorphaned by Senomyx. These receptors and the bitter ligands that activate these human T2Rs are reported in earlier patent applications which are incorporated by reference herein. These 22 human T2Rs are hT2R1, 3, 4, 5, 7, 8, 9, 10, 13, 14, 16, 44, 51, 54, 55, 61, 63, 64, 65, 67, 71 and 75. The amino acid and nucleic acid sequences of all of these T2Rs may be found in these earlier patent applications. These human T2Rs were each individually transiently transfected into HEK293 cells that stably express the promiscuous G protein G16g44 and functional assays were effected using these receptors as disclosed in these same patent applications. […] The ligands were used at EC80 concentration levels. The list of bitter ligands utilized and the tested ligand concentrations are contained in Table 5 of this example.
(§2) Relating to the foregoing, FIG. 5 contains experimental results wherein Compound C was tested with different agonist compounds. The inhibition activity is represented by the reduction of receptor activity in the presence of Compound C. […] These 13 hT2Rs are hT2R3, 7, 10, 14, 16, 44, 51, 55, 61, 63, 64, 65, and 71.

hT2R7 = hT2R7 (Homo sapiens (Human), UniProt Q9NYW3); assay: hT2R panel inhibition, transient HEK293 G16g44, agonist Chloroquine pH6.5 10 mM; assay type: cell-based; conditions: HEK293, compound at 25 μM; receptor activated to EC80 with the corresponding agonist; read-out: screening result against bitter receptor 7
Method: as §1, §2

hT2R10 = hT2R10 (Homo sapiens (Human), UniProt Q9NYW0); assay: hT2R panel inhibition, transient HEK293 G16g44, agonist Strychnine 50 μM; assay type: cell-based; conditions: HEK293, read-out: screening result against bitter receptor 10, compound at 25 μM; receptor activated to EC80 with the corresponding agonist
Method: as §1, §2

hT2R14 [1] = target: T1, hT2R14 (Homo sapiens (Human), UniProt Q9NYV8); assay: hT2R panel inhibition, transient HEK293 G16g44, agonist Aristolochic Acid 2 μM; assay type: cell-based; conditions: HEK293, compound at 25 μM
Summary of the method: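 Each hT2R was transiently transfected into HEK293 cells stably expressing G16g44 and assayed functionally for inhibition of agonist response. Agonists were applied at EC80: andrographolide at 0.5 mM for hT2R8 and aristolochic acid at 2 μM for hT2R14.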

hT2R16 = hT2R16 (Homo sapiens (Human), UniProt Q9NYV7); assay: hT2R panel inhibition, transient HEK293 G16g44, agonist Salicin 1 mM; assay type: cell-based; conditions: HEK293, compound at 25 μM
Method: as §1, §2

hT2R44 = assay: hT2R panel inhibition, transient HEK293 G16g44, agonist Denatonium 0.5 μM; assay type: cell-based, human; conditions: compound at 25 μM; for screening result against bitter receptor 44: receptor activated to EC80 with the corresponding agonist
Method: as §1, §2

hT2R54 = assay: hT2R panel inhibition, transient HEK293 G16g44, agonist Ranitidine 5 mM; assay type: cell-based, human; conditions: compound at 25 μM; for screening result against bitter receptor 54: receptor activated to EC80 with the corresponding agonist
Method: as §1, §2

hT2R55 = assay: hT2R panel inhibition, transient HEK293 G16g44, agonist Cinchonine 150 μM; assay type: cell-based, human; conditions: compound at 25 μM; for screening result against bitter receptor 55: receptor activated to EC80 with the corresponding agonist
Method: as §1, §2

hT2R61 = hT2R61 (Homo sapiens (Human), UniProt P59537); assay: hT2R panel inhibition, transient HEK293 G16g44, agonist Aristolochic Acid 25 nM; assay type: cell-based; conditions: HEK293, compound at 25 μM
Summary of the method: (§3)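 Here, inhibition reflects how much the test compound lowers activation of a transiently expressed human bitter receptor stimulated at EC80. Twenty-two such receptors were tested separately.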

hT2R63 = assay: hT2R panel inhibition, transient HEK293 G16g44, agonist Caffeine 1 mM or Andrographolide 100 μM; assay type: cell-based, human; conditions: compound at 25 μM; for screening result against bitter receptor 63: receptor activated to EC80 with the corresponding agonist
Summary of the method: as §3

hT2R64 = hT2R64 (Homo sapiens (Human), UniProt P59538); assay: hT2R panel inhibition, transient HEK293 G16g44, agonist Aristolochic Acid 1 μM; assay type: cell-based; conditions: HEK293, compound at 25 μM
Summary of the method: as §3

hT2R65 = assay: hT2R panel inhibition, transient HEK293 G16g44, agonist Oleuropein 1 mM; assay type: cell-based, human; conditions: compound at 25 μM; receptor activated to EC80 with the corresponding agonist
Method: as §1, §2

hT2R71 = hT2R71 (Homo sapiens (Human), UniProt P59536); assay: hT2R panel inhibition, transient HEK293 G16g44, agonist Picric Acid 10 μM; assay type: cell-based; conditions: HEK293, compound at 25 μM
Method: as §1, §2

hT2R67 = assay: hT2R panel inhibition, transient HEK293 G16g44, agonist Andrographolide 5 μM; assay type: cell-based, human; conditions: compound at 25 μM
Method: as §1, §2

hT2R5 = hT2R5 (Homo sapiens (Human), UniProt Q9NYW4); assay: hT2R panel inhibition, transient HEK293 G16g44, agonist Picoline 10 mM; assay type: cell-based; conditions: HEK293, compound at 25 μM; receptor activated to EC80 with the corresponding agonist; read-out: screening result against bitter receptor 5
Method: as §1, §2

hT2R14 [2] = target: T1, hT2R14; assay: hT2R14 antagonist high-throughput FLIPR assay, stable cell line with G16g44, agonist aristolochic acid; assay type: cell-based; conditions: read-out: IC50 on hT2R14 bitter receptor
Summary of the method: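 HEK293 cells stably expressing hT2R14 with chimeric G16g44 were stimulated with aristolochic acid (3 μM), giving 70-80% of maximal receptor activity. Test compounds were added together with the agonist, and antagonism was read as fluorescent calcium signal on FLIPR.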

[3] = receptor activated to EC80 with the corresponding agonist, read-out: screening result against bitter receptor 14
[4] = receptor activated to EC80 with the corresponding agonist, read-out: screening result against bitter receptor 16
[5] = receptor activated to EC80 with the corresponding agonist, read-out: screening result against bitter receptor 61
[6] = receptor activated to EC80 with the corresponding agonist, read-out: screening result against bitter receptor 64
[7] = receptor activated to EC80 with the corresponding agonist, read-out: screening result against bitter receptor 71
[8] = receptor activated to EC80 with agonist

hT2R10, sequence (Q9NYW0 whole entry): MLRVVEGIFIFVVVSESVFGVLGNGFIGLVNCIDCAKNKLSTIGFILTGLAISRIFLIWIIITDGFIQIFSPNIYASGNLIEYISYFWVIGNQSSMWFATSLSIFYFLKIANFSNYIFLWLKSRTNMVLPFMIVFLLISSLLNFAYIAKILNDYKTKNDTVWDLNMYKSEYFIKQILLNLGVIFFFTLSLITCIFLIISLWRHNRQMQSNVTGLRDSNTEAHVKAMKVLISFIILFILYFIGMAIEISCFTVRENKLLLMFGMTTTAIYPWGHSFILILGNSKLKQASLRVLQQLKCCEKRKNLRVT
T1 sequence (Q9NYV8 whole entry): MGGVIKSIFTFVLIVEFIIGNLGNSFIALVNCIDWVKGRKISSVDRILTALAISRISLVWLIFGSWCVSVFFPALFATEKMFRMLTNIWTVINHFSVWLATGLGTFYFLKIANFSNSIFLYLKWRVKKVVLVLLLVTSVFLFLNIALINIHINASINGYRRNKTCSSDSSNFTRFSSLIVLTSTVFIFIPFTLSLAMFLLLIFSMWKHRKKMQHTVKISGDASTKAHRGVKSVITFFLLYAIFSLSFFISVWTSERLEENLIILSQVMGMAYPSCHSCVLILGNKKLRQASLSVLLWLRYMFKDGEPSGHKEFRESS
hT2R3, sequence (Q9NYW6 whole entry): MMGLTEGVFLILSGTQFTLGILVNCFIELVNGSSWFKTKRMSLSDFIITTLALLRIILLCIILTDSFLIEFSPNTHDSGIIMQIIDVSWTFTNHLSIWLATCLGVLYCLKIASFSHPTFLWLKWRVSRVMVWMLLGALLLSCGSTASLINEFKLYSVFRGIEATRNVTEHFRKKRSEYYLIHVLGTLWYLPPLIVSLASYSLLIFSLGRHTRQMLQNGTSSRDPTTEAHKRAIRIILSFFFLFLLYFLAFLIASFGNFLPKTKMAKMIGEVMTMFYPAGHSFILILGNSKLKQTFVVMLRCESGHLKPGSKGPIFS
hT2R16, sequence (Q9NYV7 whole entry): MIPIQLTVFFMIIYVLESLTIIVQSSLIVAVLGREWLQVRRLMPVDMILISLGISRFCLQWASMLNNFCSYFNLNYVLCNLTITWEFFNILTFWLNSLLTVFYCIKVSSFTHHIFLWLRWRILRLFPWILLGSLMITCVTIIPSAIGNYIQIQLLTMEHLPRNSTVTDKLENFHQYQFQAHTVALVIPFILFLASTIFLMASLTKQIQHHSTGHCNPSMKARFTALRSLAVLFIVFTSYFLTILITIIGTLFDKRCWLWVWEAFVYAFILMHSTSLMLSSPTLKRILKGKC
hT2R61, sequence (P59537 whole entry): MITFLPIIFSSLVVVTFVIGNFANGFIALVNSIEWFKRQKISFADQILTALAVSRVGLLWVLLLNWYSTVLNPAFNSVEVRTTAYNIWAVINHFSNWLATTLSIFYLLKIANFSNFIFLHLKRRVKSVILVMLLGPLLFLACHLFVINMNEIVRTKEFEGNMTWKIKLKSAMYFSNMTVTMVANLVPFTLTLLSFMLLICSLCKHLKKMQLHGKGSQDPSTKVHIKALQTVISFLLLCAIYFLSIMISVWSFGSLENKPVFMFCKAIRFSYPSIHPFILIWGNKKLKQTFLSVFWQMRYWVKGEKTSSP
hT2R71, sequence (P59536 whole entry): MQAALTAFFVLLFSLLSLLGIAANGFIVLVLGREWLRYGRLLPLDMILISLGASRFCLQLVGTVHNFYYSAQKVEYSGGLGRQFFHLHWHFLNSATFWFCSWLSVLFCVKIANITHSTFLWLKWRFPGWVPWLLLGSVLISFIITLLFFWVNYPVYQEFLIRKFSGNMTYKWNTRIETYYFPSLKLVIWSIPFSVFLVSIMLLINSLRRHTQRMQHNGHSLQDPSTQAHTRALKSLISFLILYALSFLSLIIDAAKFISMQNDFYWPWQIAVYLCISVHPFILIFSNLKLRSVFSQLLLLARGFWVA
hT2R64, sequence (P59538 whole entry): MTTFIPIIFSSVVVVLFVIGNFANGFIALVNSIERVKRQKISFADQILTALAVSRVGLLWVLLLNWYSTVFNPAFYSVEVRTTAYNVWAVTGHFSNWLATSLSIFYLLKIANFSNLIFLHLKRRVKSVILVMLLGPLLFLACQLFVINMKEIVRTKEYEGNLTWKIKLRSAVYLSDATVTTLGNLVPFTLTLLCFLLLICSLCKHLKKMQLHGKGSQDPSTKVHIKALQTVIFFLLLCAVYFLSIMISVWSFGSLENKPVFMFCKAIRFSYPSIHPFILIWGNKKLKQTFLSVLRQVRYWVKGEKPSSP
hT2R5, sequence (Q9NYW4 whole entry): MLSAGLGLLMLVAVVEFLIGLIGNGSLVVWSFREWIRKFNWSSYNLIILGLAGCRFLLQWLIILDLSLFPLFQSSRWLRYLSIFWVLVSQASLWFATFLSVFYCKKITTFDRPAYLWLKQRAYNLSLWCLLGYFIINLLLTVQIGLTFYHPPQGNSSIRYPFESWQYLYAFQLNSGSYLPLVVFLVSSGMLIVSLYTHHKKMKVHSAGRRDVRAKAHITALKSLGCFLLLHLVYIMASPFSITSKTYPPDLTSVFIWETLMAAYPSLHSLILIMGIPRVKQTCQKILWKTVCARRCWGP
hT2R7, sequence (Q9NYW3 whole entry): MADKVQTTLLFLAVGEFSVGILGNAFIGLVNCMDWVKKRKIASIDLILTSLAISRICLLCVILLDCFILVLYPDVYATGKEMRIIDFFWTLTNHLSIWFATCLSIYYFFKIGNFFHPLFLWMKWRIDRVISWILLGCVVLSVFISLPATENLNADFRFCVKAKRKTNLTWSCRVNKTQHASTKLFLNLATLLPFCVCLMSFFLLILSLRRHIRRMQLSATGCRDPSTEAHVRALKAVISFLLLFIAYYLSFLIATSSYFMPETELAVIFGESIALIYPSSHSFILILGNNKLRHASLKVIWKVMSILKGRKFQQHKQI

## COc1ccc(CN(Cc2ccc(F)c(F)c2)S(=O)(=O)c2ccc(C(=O)O)cc2)cc1 [Example 5-36, 4-(N-(3,4-difluorobenzyl)-N-(4-methoxybenzyl)sulfamoyl)benzoic acid]
hT2R3
  inhibition at 25 µM: 40 to 60%
hT2R7
  inhibition at 25 µM: 20 to 40%
hT2R10
  inhibition at 25 µM: 20 to 40%
hT2R14 [1]; [3]
  inhibition at 25 µM: > 80%
hT2R16; [4]
  inhibition at 25 µM: 20 to 40%
hT2R44
  screening result against bitter receptor 44: ++ (40% to 60% inhibition = ++)
hT2R54
  screening result against bitter receptor 54: + (20% to 40% inhibition = +)
hT2R55
  screening result against bitter receptor 55: ++++ (80% or greater inhibition = ++++)
hT2R61; [5]
  inhibition at 25 µM: > 80%
hT2R63
  screening result against bitter receptor 63: +++ (60% to 80% inhibition = +++)
hT2R64; [6]
  inhibition at 25 µM: > 80%
hT2R65
  screening result against bitter receptor 65: ++ (40% to 60% inhibition = ++)
hT2R71; [7]
  inhibition at 25 µM: 60 to 80%

## COc1ccc2c(c1)-c1ccccc1CN(S(=O)(=O)c1ccc(C(=O)O)cc1)C2 [Example 5-106, 4-(2-methoxy-5H-dibenzo[c,e]azepin-6(7H)-ylsulfonyl)benzoic acid]
hT2R14 [1]; receptor activated to EC80 with agonist, read-out: inhibition of bitter receptor 14
  inhibition at 25 µM: > 80%
hT2R16; receptor activated to EC80 with agonist, read-out: inhibition of bitter receptor 16
  inhibition at 25 µM: 20 to 40%
hT2R44; [8]
  inhibition of bitter receptor 44: ++ (40% to 60% inhibition = ++)
hT2R54; [8]
  inhibition of bitter receptor 54: ++ (40% to 60% inhibition = ++)
hT2R55; [8]
  inhibition of bitter receptor 55: ++++ (80% or greater inhibition = ++++)
hT2R61; receptor activated to EC80 with agonist, read-out: inhibition of bitter receptor 61
  inhibition at 25 µM: 40 to 60%
hT2R63; [8]
  inhibition of bitter receptor 63: ++++ (80% or greater inhibition = ++++)
hT2R64; receptor activated to EC80 with agonist, read-out: inhibition of bitter receptor 64
  inhibition at 25 µM: 60 to 80%
hT2R67; [8]
  inhibition of bitter receptor 67: + (20% to 40% inhibition = +)
hT2R71; receptor activated to EC80 with agonist, read-out: inhibition of bitter receptor 71
  inhibition at 25 µM: 20 to 40%

## N#Cc1ccc(CN(Cc2ccccc2)S(=O)(=O)c2ccc(C(=O)O)cc2)cc1 [Example 5-91, 4-(N-benzyl-N-(4-cyanobenzyl)sulfamoyl)benzoic acid]
hT2R3
  inhibition at 25 µM: 60 to 80%
hT2R5
  inhibition at 25 µM: 20 to 40%
hT2R10
  inhibition at 25 µM: 40 to 60%
hT2R14 [1]; [3]
  inhibition at 25 µM: > 80%
hT2R16; [4]
  inhibition at 25 µM: 20 to 40%
hT2R44
  screening result against bitter receptor 44: +++ (60% to 80% inhibition = +++)
hT2R54
  screening result against bitter receptor 54: + (20% to 40% inhibition = +)
hT2R55
  screening result against bitter receptor 55: ++++ (80% or greater inhibition = ++++)
hT2R61; [5]
  inhibition at 25 µM: > 80%
hT2R63
  screening result against bitter receptor 63: ++++ (80% or greater inhibition = ++++)
hT2R64; [6]
  inhibition at 25 µM: > 80%
hT2R67; receptor activated to EC80 with the corresponding agonist
  screening result against bitter receptor 67: + (20% to 40% inhibition = +)
hT2R71; [7]
  inhibition at 25 µM: 60 to 80%

## COc1ccc(CN(CCc2ccccc2)S(=O)(=O)c2ccc(C(=O)O)cc2)cc1 [Example 5-19, 4-(N-(4-methoxybenzyl)-N-phenethylsulfamoyl)benzoic acid]
hT2R14 [2]
  IC50: 4.58 µM
hT2R3
  inhibition at 25 µM: 20 to 40%
hT2R5
  inhibition at 25 µM: 20 to 40%
hT2R10
  inhibition at 25 µM: 20 to 40%
hT2R14 [1]; [3]
  inhibition at 25 µM: > 80%
hT2R16; [4]
  inhibition at 25 µM: 20 to 40%
hT2R44
  screening result against bitter receptor 44: ++ (40% to 60% inhibition = ++)
hT2R54
  screening result against bitter receptor 54: + (20% to 40% inhibition = +)
hT2R55
  screening result against bitter receptor 55: ++++ (80% or greater inhibition = ++++)
hT2R64; [6]
  inhibition at 25 µM: > 80%
hT2R65
  screening result against bitter receptor 65: + (20% to 40% inhibition = +)
hT2R71; [7]
  inhibition at 25 µM: 20 to 40%

## COc1ccc(CN(c2ccccc2)S(=O)(=O)c2ccc(C(=O)O)cc2)cc1 [Example 5-18, 4-(N-(4-methoxybenzyl)-N-phenylsulfamoyl)benzoic acid]
hT2R10
  inhibition at 25 µM: > 80%
hT2R16; [4]
  inhibition at 25 µM: 40 to 60%
hT2R44
  screening result against bitter receptor 44: +++ (60% to 80% inhibition = +++)
hT2R54
  screening result against bitter receptor 54: ++ (40% to 60% inhibition = ++)
hT2R55
  screening result against bitter receptor 55: ++++ (80% or greater inhibition = ++++)
hT2R61; [5]
  inhibition at 25 µM: 60 to 80%
hT2R63
  screening result against bitter receptor 63: +++ (60% to 80% inhibition = +++)
hT2R64; [6]
  inhibition at 25 µM: > 80%
hT2R65
  screening result against bitter receptor 65: + (20% to 40% inhibition = +)
hT2R71; [7]
  inhibition at 25 µM: 40 to 60%
